Test results taken from PMC8151276, “An Integrated Approach toward NanoBRET Tracers for Analysis of GPCR Ligand Engagement” (Molecules, 2021).

Assays:
Assay type in all cases: binding
PTGER1 = target: T1, PTGER1 (Homo sapiens, UniProt P34995); experiment: NanoBRET screen HiBiT-PTGER1 in HEK293
T1 construct: purchased Promega (in-house HiBiT-GPCR construct library, NanoBRET)
T1 sequence (P34995 1-402): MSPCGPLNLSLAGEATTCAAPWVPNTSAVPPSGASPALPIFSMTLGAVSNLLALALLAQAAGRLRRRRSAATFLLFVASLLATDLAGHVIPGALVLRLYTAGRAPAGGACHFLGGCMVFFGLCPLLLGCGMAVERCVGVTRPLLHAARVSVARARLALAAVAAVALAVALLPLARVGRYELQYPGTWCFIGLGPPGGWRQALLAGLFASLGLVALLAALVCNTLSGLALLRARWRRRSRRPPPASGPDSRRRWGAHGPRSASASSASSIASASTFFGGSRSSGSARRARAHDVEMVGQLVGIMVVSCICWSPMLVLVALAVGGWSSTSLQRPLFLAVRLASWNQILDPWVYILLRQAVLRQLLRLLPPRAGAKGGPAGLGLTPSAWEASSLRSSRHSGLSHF
Description: (§1) Each tracer candidate was screened across the entire library of HiBiT-GPCR constructs using NanoBRET as the detection modality. As depicted in Figure 4A, the specificity of interactions was evaluated through decrease in BRET due to competitive displacement of a bound tracer by excess parental compound. Each tracer was analyzed for binding to each HiBiT-GPCR fusion in the absence and in the presence of competing parental compound. Briefly, HEK293 cells were transfected with HiBiT-GPCR constructs diluted into promoterless DNA to reduce expression and maximize translocation to the cell surface. Each tracer candidate was then screened at concentrations of 1 μM and 0.1 μM across cells expressing these fusions. Cells were treated for 1.5 h with tracer either alone or in the presence of 20 μM competing parental compound (i.e., control). BRET was measured upon addition of purified LgBiT and subsequent complementation with HiBiT genetically fused to a GPCR. The specificity of interactions was assessed through a decrease in BRET signal due to competitive displacement of the bound tracer. To further gauge the robustness of these interactions, the fold response over the control (i.e., BRETtracer/BRETcontrol) was calculated. We chose a 1.5-fold response, which translates to ≥7-fold signal over noise as the minimal threshold required to score an interaction as positive. […]. Below we highlight the screening results obtained for our exemplary fluorescent tracers based on Clozapine, Amitriptyline and AZD1283.
(§2) HiBiT-GPCR DNA constructs were diluted in 10 mM Tris pH 8 to a final concentration of 0.01 μg/μL, arrayed in 96-well plates and stored at −20 °C. For transfection, HEK293 cells were suspended in Opti-MEM (without phenol red) supplemented with 2% fetal bovine serum (Seradigm) and 100 units/mL penicillin–streptomycin (Gibco) at a final concentration of 220,000 cells/mL and dispensed into white 96-well plates at 90 μL/well. Subsequent transfections and screens were carried using an Agilent Bravo Automated Liquid Handling Platform. First, the 96-well HiBiT DNA arrays were diluted 25-fold in Opti-MEM (without serum or phenol red) to a final concentration of 0.0004 μg/μL and 20 μL of the diluted DNAs were transferred into new 96-well plates. Next, promoterless carrier DNA (1 μg/μL) was diluted 25-fold (0.04 μg/μL) and then dispensed into the diluted arrays at 20 μL/well. Following brief mixing, Viafect transfection reagent (Promega) diluted 16-fold into Opti-MEM was dispensed into the plates at 40 μL/well. After mixing by pipetting, plates were incubated for 10 min on the pipetting station deck. The DNA-transfection reagent complexes were then added to plates containing cells. To facilitate the screen, 10 μL of DNA-transfection reagent complexes were added in duplicates to the top 4 and bottom 4 rows, resulting in two identical 48-well arrays per plate. Plates with transfected cells were incubated for 18–20 h at 37 °C/5% CO2. A screen of each tracer across the entire library using two different concentrations requires duplicate plates of transfected cells. Depending on the number of tracers being screened, transfections can be scaled up using the same ratios. The next day, for each tracer, four 20× screening solutions in tracer dilution buffer (Promega) were prepared: two duplicates at final concentration of 20 μM and two duplicates at a final concentration of 2 μM. A competing unmodified compound was added to one of each duplicate at a final concentration of 400 μM. The four resulting solutions were diluted 4-fold in Opti-MEM without serum or phenol red to generate 5× solutions (5 µM and 0.5 µM tracer +/− 100 μM competing compound). To screen the library, a BioTek MultiFlo FX liquid dispenser was used to dispense 22.5 µL of tracer solution to the top 4 rows and 22.5 µL tracer + competing compound solution to the 4 bottom rows. Plates were briefly mixed on an orbital shaker and incubated for 1.5 h at room temperature. […]

HRH3 = target: T2, HRH3 (Homo sapiens, UniProt Q9Y5N1); experiment: NanoBRET screen HiBiT-HRH3 in HEK293
T2 construct: purchased Promega (in-house HiBiT-GPCR construct library, NanoBRET)
T2 sequence (Q9Y5N1 whole entry): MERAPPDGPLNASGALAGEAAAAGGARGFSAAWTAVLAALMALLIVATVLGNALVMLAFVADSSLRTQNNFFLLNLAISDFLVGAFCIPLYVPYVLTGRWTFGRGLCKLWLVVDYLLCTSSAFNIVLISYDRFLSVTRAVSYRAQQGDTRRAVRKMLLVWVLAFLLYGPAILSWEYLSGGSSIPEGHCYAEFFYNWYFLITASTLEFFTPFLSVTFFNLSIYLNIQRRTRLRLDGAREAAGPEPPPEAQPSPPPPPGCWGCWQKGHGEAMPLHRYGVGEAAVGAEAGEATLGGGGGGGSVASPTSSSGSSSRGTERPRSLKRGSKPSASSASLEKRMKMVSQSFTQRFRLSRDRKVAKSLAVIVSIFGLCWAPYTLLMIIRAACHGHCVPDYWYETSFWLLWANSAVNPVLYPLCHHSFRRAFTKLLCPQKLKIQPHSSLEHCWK
Description: as §1, §2

GRM2 = target: T3, GRM2 (Homo sapiens, UniProt Q14416); experiment: NanoBRET screen HiBiT-GRM2 in HEK293
T3 construct: purchased Promega (in-house HiBiT-GPCR construct library, NanoBRET)
T3 sequence (Q14416 19-872): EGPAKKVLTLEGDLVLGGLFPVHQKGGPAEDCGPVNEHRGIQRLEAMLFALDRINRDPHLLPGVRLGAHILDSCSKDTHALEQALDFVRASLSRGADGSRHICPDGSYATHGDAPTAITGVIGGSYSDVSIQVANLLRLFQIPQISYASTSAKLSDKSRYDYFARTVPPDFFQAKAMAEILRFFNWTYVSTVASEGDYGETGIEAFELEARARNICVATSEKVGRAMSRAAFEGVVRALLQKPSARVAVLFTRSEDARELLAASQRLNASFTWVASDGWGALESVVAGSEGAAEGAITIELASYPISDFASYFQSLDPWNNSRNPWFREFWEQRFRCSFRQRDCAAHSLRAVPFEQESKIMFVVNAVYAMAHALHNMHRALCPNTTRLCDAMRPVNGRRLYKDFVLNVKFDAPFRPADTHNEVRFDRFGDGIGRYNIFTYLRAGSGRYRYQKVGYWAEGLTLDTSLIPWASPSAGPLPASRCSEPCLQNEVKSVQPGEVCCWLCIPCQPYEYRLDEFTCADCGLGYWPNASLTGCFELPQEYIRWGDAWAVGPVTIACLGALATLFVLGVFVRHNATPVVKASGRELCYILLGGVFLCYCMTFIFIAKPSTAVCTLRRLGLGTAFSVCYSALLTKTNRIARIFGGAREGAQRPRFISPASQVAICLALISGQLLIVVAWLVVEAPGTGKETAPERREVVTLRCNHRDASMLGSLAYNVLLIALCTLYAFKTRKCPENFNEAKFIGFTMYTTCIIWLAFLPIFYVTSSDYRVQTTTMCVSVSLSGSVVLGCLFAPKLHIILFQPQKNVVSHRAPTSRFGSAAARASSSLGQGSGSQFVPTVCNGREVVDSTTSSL
Description: as §1, §2

FZD7 = target: T4, FZD7 (Homo sapiens, UniProt O75084); experiment: NanoBRET screen HiBiT-FZD7 in HEK293
T4 construct: purchased Promega (in-house HiBiT-GPCR construct library, NanoBRET)
Description: as §1, §2

ACKR3 = target: T5, ACKR3 (Homo sapiens, UniProt P25106); experiment: NanoBRET screen HiBiT-ACKR3 in HEK293
T5 construct: purchased Promega (in-house HiBiT-GPCR construct library, NanoBRET)
T5 sequence (P25106 whole entry): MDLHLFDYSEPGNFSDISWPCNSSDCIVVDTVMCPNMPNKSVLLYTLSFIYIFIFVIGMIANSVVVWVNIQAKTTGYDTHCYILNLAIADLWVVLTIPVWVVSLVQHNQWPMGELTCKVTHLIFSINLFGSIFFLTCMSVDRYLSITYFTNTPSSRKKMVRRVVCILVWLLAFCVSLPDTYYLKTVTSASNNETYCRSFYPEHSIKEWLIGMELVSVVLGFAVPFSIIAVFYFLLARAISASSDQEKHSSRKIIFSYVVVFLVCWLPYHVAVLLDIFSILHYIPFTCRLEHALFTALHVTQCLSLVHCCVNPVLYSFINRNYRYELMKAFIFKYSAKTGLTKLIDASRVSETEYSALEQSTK
Description: as §1, §2

LTB4R2 = target: T6, LTB4R2 (Homo sapiens, UniProt Q9NPC1); experiment: NanoBRET screen HiBiT-LTB4R2 in HEK293
T6 construct: purchased Promega (in-house HiBiT-GPCR construct library, NanoBRET)
T6 sequence (Q9NPC1 1-358): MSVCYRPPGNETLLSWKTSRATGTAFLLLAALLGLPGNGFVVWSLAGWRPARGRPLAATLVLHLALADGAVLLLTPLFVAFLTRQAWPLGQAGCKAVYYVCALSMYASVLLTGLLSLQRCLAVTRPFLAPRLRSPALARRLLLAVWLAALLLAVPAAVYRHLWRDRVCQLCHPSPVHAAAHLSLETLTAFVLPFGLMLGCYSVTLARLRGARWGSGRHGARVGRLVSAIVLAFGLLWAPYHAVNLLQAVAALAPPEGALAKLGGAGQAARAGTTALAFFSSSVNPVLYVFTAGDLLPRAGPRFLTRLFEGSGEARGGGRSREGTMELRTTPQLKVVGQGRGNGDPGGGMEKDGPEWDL
Description: as §1, §2

| Structure (SMILES) | NanoBRET Fold Response (PTGER1; PTGER1, 0.1μM tracer) | NanoBRET Fold Response (PTGER1; PTGER1, 1μM tracer) | NanoBRET Fold Response (HRH3; HRH3, 0.1μM tracer) | NanoBRET Fold Response (HRH3; HRH3, 1μM tracer) | NanoBRET Fold Response (GRM2; GRM2, 0.1μM tracer) | NanoBRET Fold Response (GRM2; GRM2, 1μM tracer) | NanoBRET Fold Response (FZD7; FZD7, 0.1μM tracer) | NanoBRET Fold Response (FZD7; FZD7, 1μM tracer) | NanoBRET Fold Response (ACKR3; ACKR3, 1μM tracer) | NanoBRET Fold Response (LTB4R2; LTB4R2, 0.1μM tracer) | NanoBRET Fold Response (LTB4R2; LTB4R2, 1μM tracer) | NanoBRET Fold Response (PTGER1; PTGER1, tracer 0.1μM) | NanoBRET Fold Response (PTGER1; PTGER1, tracer 1μM) | NanoBRET Fold Response (HRH3; HRH3, tracer 0.1μM) | NanoBRET Fold Response (HRH3; HRH3, tracer 1μM) | NanoBRET Fold Response (GRM2; GRM2, tracer 0.1μM) | NanoBRET Fold Response (GRM2; GRM2, tracer 1μM) | NanoBRET Fold Response (FZD7; FZD7, tracer 0.1μM) | NanoBRET Fold Response (FZD7; FZD7, tracer 1μM) | NanoBRET Fold Response (ACKR3; ACKR3, tracer 0.1μM) | other results |
| --- | --- | --- | --- | --- | --- | --- | --- | --- | --- | --- | --- | --- | --- | --- | --- | --- | --- | --- | --- | --- | --- |
| CN1CCN(C2=Nc3cc(Cl)ccc3N(CC(=O)NCCOCCOCCOCCOCCNC(=O)CCc3ccc4n3[B-](F)(F)[N+]3=C(c5ccc[nH]5)C=CC3=C4)c3ccccc32)CC1 [Clozapine-c-2-NB590] | 1.00 | 0.92 | 0.98 | 0.86 | 0.97 | 1.00 | 0.98 | 1.00 | 0.92 | 1.02 | 0.91 | – | – | – | – | – | – | – | – | – | – |
| O=C(CCc1ccc2n1[B-](F)(F)[N+]1=C(c3ccc[nH]3)C=CC1=C2)NCc1ccc(C(=O)NCCOCCC(=O)N[C@@H]2CC[C@@]3(O)[C@H]4Cc5ccc(O)c6c5[C@@]3(CCN4CC3CC3)[C@H]2O6)cc1 [Naltrexone-3-NB590] | – | – | – | – | – | – | – | – | – | – | – | 1.01 | 1.02 | 0.76 | 0.77 | 0.92 | 0.98 | 1.32 | 1.27 | 1.11 | NanoBRET Fold Response (ACKR3; ACKR3, tracer 1μM): 1.07; NanoBRET Fold Response (LTB4R2; LTB4R2, tracer 0.1μM): 0.89; NanoBRET Fold Response (LTB4R2; LTB4R2, tracer 1μM): 1.36 |
| CC(C)N(CC[C@H](c1ccccc1)c1cc(CCNC(=O)CCOCCOCCOCCOCCNC(=O)CCc2ccc3n2[B-](F)(F)[N+]2=C(c4ccc[nH]4)C=CC2=C3)ccc1O)C(C)C [Tolterodine-2-NB590] | – | – | – | – | – | – | – | – | – | – | – | 1.00 | 1.23 | 1.49 | 1.07 | 0.99 | 0.97 | 1.00 | 1.12 | 0.96 | NanoBRET Fold Response (ACKR3; ACKR3, tracer 1μM): 1.00; NanoBRET Fold Response (LTB4R2; LTB4R2, tracer 0.1μM): 1.00; NanoBRET Fold Response (LTB4R2; LTB4R2, tracer 1μM): 1.22 |
| Cc1nc2n(c(=O)c1CCN1CCC(c3noc4cc(F)ccc34)CC1)CCCC2OC(=O)NCCOCCOCCOCCOCCNC(=O)CCc1ccc2n1[B-](F)(F)[N+]1=C(c3ccc[nH]3)C=CC1=C2 (centres unmarked) [Risperidone-2-NB590] | – | – | – | – | – | – | – | – | – | – | – | 1.04 | 1.07 | 1.07 | 1.58 | 0.96 | 1.04 | 0.98 | 1.04 | 1.07 | NanoBRET Fold Response (ACKR3; ACKR3, tracer 1μM): 1.36; NanoBRET Fold Response (LTB4R2; LTB4R2, tracer 0.1μM): 0.97; NanoBRET Fold Response (LTB4R2; LTB4R2, tracer 1μM): 0.94 |
| O=C(CCOCCOCCOCCOCCNC(=O)CCc1ccc2n1[B-](F)(F)[N+]1=C(c3ccc[nH]3)C=CC1=C2)NCCCN1CCN(C2=Nc3cc(Cl)ccc3Nc3ccccc32)CC1 [Clozapine-a-2-NB590] | 1.03 | 1.02 | 0.97 | 0.91 | 1.03 | 1.01 | 1.00 | 0.98 | 1.06 | 1.03 | 0.88 | – | – | – | – | – | – | – | – | – | NanoBRET Fold Response (ACKR3; ACKR3, 0.1μM tracer): 1.05 |
| COc1ccc2[nH]c(-c3ccc(CNC(=O)CCOCCOCCOCCOCCNC(=O)CCc4ccc5n4[B-](F)(F)[N+]4=C(c6ccc[nH]6)C=CC4=C5)cc3)c(CCNC(C)=O)c2n1 [AzomelatoninICO9-2-NB590] | – | – | – | – | – | – | – | – | – | – | – | – | – | – | – | – | – | – | – | – | NanoBRET Fold Response (PTGER1; 0.1μM tracer): 0.77; NanoBRET Fold Response (PTGER1; 1μM tracer): 0.95; NanoBRET Fold Response (HRH3; 0.1μM tracer): 1.09; NanoBRET Fold Response (HRH3; 1μM tracer): 1.03; NanoBRET Fold Response (GRM2; 0.1μM tracer): 1.11; NanoBRET Fold Response (GRM2; 1μM tracer): 0.95; NanoBRET Fold Response (FZD7; 0.1μM tracer): 1.29; NanoBRET Fold Response (FZD7; 1μM tracer): 0.84; NanoBRET Fold Response (ACKR3; 0.1μM tracer): 1.40; NanoBRET Fold Response (ACKR3; 1μM tracer): 0.83; NanoBRET Fold Response (LTB4R2; 0.1μM tracer): 1.38; NanoBRET Fold Response (LTB4R2; 1μM tracer): 0.99 |
| CN1CCN(C2=Nc3cc(Cl)ccc3Nc3ccc(CNC(=O)CCOCCOCCOCCOCCNC(=O)CCc4ccc5n4[B-](F)(F)[N+]4=C(c6ccc[nH]6)C=CC4=C5)cc32)CC1 [Clozapine-b-2-NB590] | 1.01 | 0.97 | 0.98 | 1.06 | 1.01 | 1.04 | 1.01 | 0.98 | 1.05 | 0.97 | 1.16 | – | – | – | – | – | – | – | – | – | NanoBRET Fold Response (ACKR3; ACKR3, 0.1μM tracer): 0.95 |
